{"source": "patent US11560395B2", "about": "“Azithromycin derivatives containing a phosphonium ion as anticancer agents” (Rising Tide Foundation, priority 2017, dated 2023)", "data": [{"tested_on": "MDA-231 cancer cells", "experiment": "Inhibition of proliferation assay, cell confluence (IncuCyte live cell imaging)", "type": "cell-based", "details": "MDA-231 cells, concentration 10 uM; relative confluence normalised to time zero, images every 3 h over 4-5 d", "excerpt": "Inhibition of Proliferation Assay Cell Confluence The confluence value is a surrogate for cell proliferation and growth. The value is expressed as a percent confluence, which represents the fraction of culture dish-surface that is occupied by cells. As the number of cells in the dish increases over time due to proliferation, so will their coverage of that surface increase. Expansion of the cell population on the cell culture-dish surface and confluence have mostly a linear relationship until the cells on the plate surface begin to reach saturation or maximum density. Confluence is determined based on image analysis. Image based software can identify objects in the image field base on changes to pixel density in a grey scale image. The software can then assign a mask to those pixels within the object. Objects can be ‘gated’ out based on size and shape. To determine cell confluence, images of cells are first masked as objects. The surface area of the image that is masked is measured and compared to the total surface area of the culture dish surface to obtain a percent confluence. MDA-231 cancer cells were obtained from ATCC. Cells were cultured in Dulbecco's Modified Eagle Medium (DMEM) supplemented with 10% Fetal Bovine Serum (FBS), 2 mM Glutamax, 1 mM Non Essential Amino Acid (NEAA) solution and 1 mM sodium pyruvate. Compounds were dissolved in DMSO at 10 mM and diluted in cellular medium and tested at 10 μM (micromolar). Final DMSO concentrations were <0.1%. Images were acquired with an IncuCyte Live Cell Imaging microscopy (Essen Bioscience) at every 3 h under cell culture conditions with 10× objective over 4-5 d. Cell confluence was calculated from one field of view per well using the IncuCyte in-built algorithm. Relative confluence values were obtained by normalising each value to the time zero value in each sample.", "units": {"% Confluence": "%"}, "values": [{"smiles": "CC[C@H]1OC(=O)[C@H](C)[C@@H](O[C@H]2C[C@@](C)(OC)[C@@H](O)[C@H](C)O2)[C@H](C)[C@@H](O[C@@H]2O[C@H](C)C[C@H](N(C)C)[C@H]2O)[C@](C)(O)C[C@@H](C)CN(C(=O)CCCCCCCCCCCCC[P+](c2ccccc2)(c2ccccc2)c2ccccc2)[C@H](C)[C@@H](O)[C@]1(C)O", "note": "[Example 1, {14-[(2R,3S,4R,5R,8R,10R,11R,12S,13S,14R)-11-{[(2S,3R,4S,6R)-4-(dimethylamino)-3-hydroxy-6-methyloxan-2-yl]oxy}-2-ethyl-3,4,10-trihydroxy-13-{[(2R,4R,5S,6S)-5-hydroxy-4-methoxy-4,6-dimethyloxan-2-yl]oxy}-3,5,8,10,12,14-hexamethyl-15-oxo-1-oxa-6-azacyclopentadecan-6-yl]-14-oxotetradecyl}triphenylphosphonium hexafluorophosphate(V)]", "% Confluence": 4.2}, {"smiles": "CC[C@H]1OC(=O)[C@H](C)[C@@H](O[C@H]2C[C@@](C)(OC)[C@@H](O)[C@H](C)O2)[C@H](C)[C@@H](O[C@@H]2O[C@H](C)C[C@H](N(C)C)[C@H]2O)[C@](C)(O)C[C@@H](C)CN(C(=O)CCCCCCCCC[P+](c2ccccc2)(c2ccccc2)c2ccccc2)[C@H](C)[C@@H](O)[C@]1(C)O", "note": "[Example 2, {10-[(2R,3S,4R,5R,8R,10R,11R,12S,13S,14R)-11-{[(2S,3R,4S,6R)-4-(dimethylamino)-3-hydroxy-6-methyloxan-2-yl]oxy}-2-ethyl-3,4,10-trihydroxy-13-{[(2R,4R,5S,6S)-5-hydroxy-4-methoxy-4,6-dimethyloxan-2-yl]oxy}-3,5,8,10,12,14-hexamethyl-15-oxo-1-oxa-6-azacyclopentadecan-6-yl]-10-oxodecyl}triphenylphosphonium hexafluorophosphate(V)]", "% Confluence": 13.4}, {"smiles": "CC[C@H]1OC(=O)[C@H](C)[C@@H](O[C@H]2C[C@@](C)(OC)[C@@H](O)[C@H](C)O2)[C@H](C)[C@@H](O[C@@H]2O[C@H](C)C[C@H](N(C)C)[C@H]2O)[C@](C)(O)C[C@@H](C)CN(C(=O)CCCCCCCC[P+](c2ccccc2)(c2ccccc2)c2ccccc2)[C@H](C)[C@@H](O)[C@]1(C)O", "note": "[Example 3, {9-[(2R,3S,4R,5R,8R,10R,11R,12S,13S,14R)-11-{[(2S,3R,4S,6R)-4-(dimethylamino)-3-hydroxy-6-methyloxan-2-yl]oxy}-2-ethyl-3,4,10-trihydroxy-13-{[(2R,4R,5S,6S)-5-hydroxy-4-methoxy-4,6-dimethyloxan-2-yl]oxy}-3,5,8,10,12,14-hexamethyl-15-oxo-1-oxa-6-azacyclopentadecan-6-yl]-9-oxononyl}triphenylphosphonium hexafluorophosphate(V)]", "% Confluence": 98.4}, {"smiles": "CC[C@H]1OC(=O)[C@H](C)[C@@H](O[C@H]2C[C@@](C)(OC)[C@@H](O)[C@H](C)O2)[C@H](C)[C@@H](O[C@@H]2O[C@H](C)C[C@H](N(C)C)[C@H]2O)[C@](C)(O)C[C@@H](C)CN(C(=O)CCCCCC[P+](c2ccccc2)(c2ccccc2)c2ccccc2)[C@H](C)[C@@H](O)[C@]1(C)O", "note": "[Example 4, {7-[(2R,3S,4R,5R,8R,10R,11R,12S,13S,14R)-11-{[(2S,3R,4S,6R)-4-(dimethylamino)-3-hydroxy-6-methyloxan-2-yl]oxy}-2-ethyl-3,4,10-trihydroxy-13-{[(2R,4R,5S,6S)-5-hydroxy-4-methoxy-4,6-dimethyloxan-2-yl]oxy}-3,5,8,10,12,14-hexamethyl-15-oxo-1-oxa-6-azacyclopentadecan-6-yl]-7-oxoheptyl}triphenylphosphonium hexafluorophosphate(V)]", "% Confluence": 89.9}, {"smiles": "CC[C@H]1OC(=O)[C@H](C)[C@@H](O[C@H]2C[C@@](C)(OC)[C@@H](O)[C@H](C)O2)[C@H](C)[C@@H](O[C@@H]2O[C@H](C)C[C@H](N(C)C)[C@H]2O)[C@](C)(O)C[C@@H](C)CN(C(=O)CCCCCCCCCCC[P+](c2ccccc2)(c2ccccc2)c2ccccc2)[C@H](C)[C@@H](O)[C@]1(C)O", "note": "[Example 5, {12-[(2R,3S,4R,5R,8R,10R,11R,12S,13S,14R)-11-{[(2S,3R,4S,6R)-4-(dimethylamino)-3-hydroxy-6-methyloxan-2-yl]oxy}-2-ethyl-3,4,10-trihydroxy-13-{[(2R,4R,5S,6S)-5-hydroxy-4-methoxy-4,6-dimethyloxan-2-yl]oxy}-3,5,8,10,12,14-hexamethyl-15-oxo-1-oxa-6-azacyclopentadecan-6-yl]-12-oxododecyl}triphenylphosphonium hexafluorophosphate(V)]", "% Confluence": 5}, {"smiles": "CC[C@H]1OC(=O)[C@H](C)[C@@H](O[C@H]2C[C@@](C)(OC)[C@@H](O)[C@H](C)O2)[C@H](C)[C@@H](O[C@@H]2O[C@H](C)C[C@H](N(C)C)[C@H]2O)[C@](C)(O)C[C@@H](C)CN(C(=O)CCCCC[PH](c2ccccc2)(c2ccccc2)c2ccccc2)[C@H](C)[C@@H](O)[C@]1(C)O", "note": "[Example 6, {6-[(2R,3S,4R,5R,8R,10R,11R,12S,13S,14R)-11-{[(2S,3R,4S,6R)-4-(dimethylamino)-3-hydroxy-6-methyloxan-2-yl]oxy}-2-ethyl-3,4,10-trihydroxy-13-{[(2R,4R,5S,6S)-5-hydroxy-4-methoxy-4,6-dimethyloxan-2-yl]oxy}-3,5,8,10,12,14-hexamethyl-15-oxo-1-oxa-6-azacyclopentadecan-6-yl]-6-oxohexyl}triphenylphosphonium hexafluorophosphate(V)]", "% Confluence": 118.9}, {"smiles": "CC[C@H]1OC(=O)[C@H](C)[C@@H](O[C@H]2C[C@@](C)(OC)[C@@H](O)[C@H](C)O2)[C@H](C)[C@@H](O[C@@H]2O[C@H](C)C[C@H](N(C)C)[C@H]2O)[C@](C)(O)C[C@@H](C)CN(CCCCCCCC[P+](c2ccccc2)(c2ccccc2)c2ccccc2)[C@H](C)[C@@H](O)[C@]1(C)O.[I-]", "note": "[Example 7, {8-[(2R,3S,4R,5R,8R,10R,11R,12S,13S,14R)-11-{[(2S,3R,4S,6R)-4-(dimethylamino)-3-hydroxy-6-methyloxan-2-yl]oxy}-2-ethyl-3,4,10-trihydroxy-13-{[(2R,4R,5S,6S)-5-hydroxy-4-methoxy-4,6-dimethyloxan-2-yl]oxy}-3,5,8,10,12,14-hexamethyl-15-oxo-1-oxa-6-azacyclopentadecan-6-yl]octyl}triphenylphosphonium iodide]", "% Confluence": 23.3}, {"smiles": "CC[C@H]1OC(=O)[C@H](C)[C@@H](O[C@H]2C[C@@](C)(OC)[C@@H](O)[C@H](C)O2)[C@H](C)[C@@H](O[C@@H]2O[C@H](C)C[C@H](N(C)C)[C@H]2O)[C@](C)(O)C[C@@H](C)CN(CCCCCC[P+](c2ccccc2)(c2ccccc2)c2ccccc2)[C@H](C)[C@@H](O)[C@]1(C)O", "note": "[Example 8, {6-[(2R,3S,4R,5R,8R,10R,11R,12S,13S,14R)-11-{[(2S,3R,4S,6R)-4-(dimethylamino)-3-hydroxy-6-methyloxan-2-yl]oxy}-2-ethyl-3,4,10-trihydroxy-13-{[(2R,4R,5S,6S)-5-hydroxy-4-methoxy-4,6-dimethyloxan-2-yl]oxy}-3,5,8,10,12,14-hexamethyl-15-oxo-1-oxa-6-azacyclopentadecan-6-yl]hexyl}triphenylphosphonium iodide]", "% Confluence": 109.9}, {"smiles": "CC[C@H]1OC(=O)[C@H](C)[C@@H](O[C@H]2C[C@@](C)(OC)[C@@H](O)[C@H](C)O2)[C@H](C)[C@@H](O[C@@H]2O[C@H](C)C[C@H](N(C)C)[C@H]2O)[C@](C)(O)C[C@@H](C)CN(C(=O)CCCCCCC[P+](c2ccccc2)(c2ccccc2)c2ccccc2)[C@H](C)[C@@H](O)[C@]1(C)O", "note": "[Example 9, {8-[(2R,3S,4R,5R,8R,10R,11R,12S,13S,14R)-11-{[(2S,3R,4S,6R)-4-(dimethylamino)-3-hydroxy-6-methyloxan-2-yl]oxy}-2-ethyl-3,4,10-trihydroxy-13-{[(2R,4R,5S,6S)-5-hydroxy-4-methoxy-4,6-dimethyloxan-2-yl]oxy}-3,5,8,10,12,14-hexamethyl-15-oxo-1-oxa-6-azacyclopentadecan-6-yl]-8-oxooctyl}triphenylphosphonium hexafluorophosphate(V)]", "% Confluence": 105.3}, {"smiles": "CC[C@H]1OC(=O)[C@H](C)[C@@H](O)[C@H](C)[C@@H](O[C@@H]2O[C@H](C)C[C@H](N(C)C)[C@H]2O)[C@](C)(O)C[C@@H](C)CN(C(=O)CCCCCCCCCCC[P+](c2ccccc2)(c2ccccc2)c2ccccc2)[C@H](C)[C@@H](O)[C@]1(C)O", "note": "[Example 12, {12-[(2R,3S,4R,5R,8R,10R,11R,12S,13S,14R)-11-{[(2S,3R,4S,6R)-4-(dimethylamino)-3-hydroxy-6-methyloxan-2-yl]oxy}-2-ethyl-3,4,10,13-tetrahydroxy-3,5,8,10,12,14-hexamethyl-15-oxo-1-oxa-6-azacyclopentadecan-6-yl]-12-oxododecyl}triphenylphosphonium hexafluorophosphate(V)]", "% Confluence": 6.6}, {"smiles": "CC[C@H]1OC(=O)[C@H](C)[C@@H](O)[C@H](C)[C@@H](O)[C@](C)(O)C[C@@H](C)CN(C(=O)CCCCCCCCCCC[PH](c2ccccc2)(c2ccccc2)c2ccccc2)[C@H](C)[C@@H](O)[C@]1(C)O", "note": "[Example 13, {12-[(2R,3S,4R,5R,8R,10R,11R,12S,13S,14R)-2-ethyl-3,4,10,11,13-pentahydroxy-3,5,8,10,12,14-hexamethyl-15-oxo-1-oxa-6-azacyclopentadecan-6-yl]-12-oxododecyl}triphenylphosphonium hexafluorophosphate(V)]", "% Confluence": 11}]}]}
